According to US8241863B2, “Identification of an evolutionarily conserved pathway mediating transrepression of inflammatory response genes by nuclear receptors” (The Regents of the University of California, priority 2005, dated 2012):
Entries after “also recorded” stand apart in the source; their conditions may differ. One block for each molecule: values may come before it.

What was measured:
[1] = test system: iNOS gene; experiment: iNOS expression in LPS-treated primary peritoneal macrophages by real-time PCR, LXR ligands; format: cell-based, mouse; settings: for repression of iNOS activation: oxysterols 5 μM, LPS, 6 h, less potently than GW3965 1 μM where active (FIG. 14 upper)
Experimental: Thioglycollate-elicited macrophages were isolated by peritoneal lavage 3 days following peritoneal injection of 2.5 ml 3% thioglycollate (DIFCO). Cells were plated in RPMI medium 1640 and 10% fetal bovine serum. After 5 h the medium was removed and cells were fed with fresh medium. For RNAi experiments, smart-pool siRNAs (Dharmacon) against NCoR and Ubc9 were transfected into primary macrophages using lipofectamine 2000 (Invitrogen), incubated for 48 h and validated by Q-PCR and Western Blotting. LPS (Sigma) was used at a concentration of 1 μg/ml and GW3965 (obtained under MTA from GlaxoSmithKline) was used at a concentration of 1 μM.
Total RNA (isolated by RNeasy kit, Qiagen) was prepared from primary macrophages pretreated with 1 μM GW3965 (2 h) before 1 μg/ml LPS stimulation (6 h). One microgram of total RNA was used for CDNA synthesis, and 1 μl of cDNA was used for real time PCR using iNOS or inflammatory-gene-specific primers.
(§1) Macrophages were transfected with siRNA for 48 h and then stimulated with LPS ([…]) for 6 h in the absence or presence of LXR ligand (GW3965, 1 μM). iNOS expression in peritoneal macrophages was evaluated by real-time quantitative PCR and iNOS promoter activation in RAW264.7 was evaluated by luciferase assay. […] Primary macrophages were treated with LPS ([…]) with or without the LXR ligand (GW3965, 1 μM) for 1 h.
(§2) Primary mouse peritoneal macrophages were treated in the upper panel with LPS and the indicated ligands and harvested for real time PCR analysis of iNOS expression 6 h later. In the lower panel, cells were treated with the indicated ligands for 18 hours and harvest for real time PCR analysis of ABCA1 expression. GW3965 was used at a concentration of 1 μM. The oxysterols were used at a concentration of 5 μM.

[2] = test system: ABCA1 gene; experiment: ABCA1 expression in primary macrophages by real-time PCR; format: cell-based, mouse; settings: oxysterols 5 μM, 18 hours; less potently than GW3965 1 μM for the first three (FIG. 14 lower)
Experimental: as §2

[3] = test system: Ccl3, Ccl7, Cxcl10 and Tgtp; experiment: Microarray analysis of primary macrophages treated with LPS with or without PPARγ agonist; format: cell-based, mouse; settings: LPS (FIG. 2e)
Experimental: In FIG. 2a, CHIP analysis of NCoR and Ubc5 occupancy on the iNOS promoter was performed in primary macrophages stimulated with LPS for the indicated times in the presence or absence of Ro. In FIG. 2b, Semi-quantitative RT-PCR analysis of iNOS and GAPDH mRNA in primary macrophages. Cells were treated with Ro 1 h before (pre) or 1 h following (post) stimulation with LPS. RNA was isolated for analysis 6 h after LPS treatment. In FIG. 2c, ChIP analysis for p65 and PPARγ on iNOS and CD36 promoters in primary macrophages was performed as described in FIG. 2a. In FIG. 2d, ChIP analysis of the iNOS promoter for NCoR and PPARγ was carried out in primary macrophages 1 h following LPS stimulation. Ro was given 1 h before (pre) or 1 h after (post) stimulation. Cells were transfected with control or NCoR-specific siRNAs 48 h prior to LPS stimulation. In FIG. 2e, Expression data derived from microarray analysis of primary macrophages treated with LPS in the presence or absence of the PPARγ-specific agonist GW7845. In FIG. 2f, ChIP analysis for NCoR and PPARγ on the indicated promoters was carried out using primary macrophages as in 2d.

[4] = test system: iNOS gene; experiment: iNOS mRNA in LPS-stimulated primary macrophages (Northern blot / semi-quantitative RT-PCR), PPARγ ligands; format: cell-based, mouse; settings: as little as 10 nM Trichostatin A 1 h, then 1 μM Ro 2 h, LPS 6 h (FIG. 1c)
Experimental: Primary macrophages were elicited by intra-peritoneal injection with 2 ml of thioglycollate. […] For RNAi experiments, smart-pool siRNAs (Dharmacon) against PIAS1, Ubc9, HDAC3, HDAC7 or control non-specific and previously validated NCoR were transected using lipofectamine 2000 (Invitrogen) into primary macrophages and incubated for 48 h.
Total RNA (Trizol method) was prepared from thioglycollate-elicited primary macrophages pre-treated with 1 μM Ro (2 h) prior to 1 μg/ml LPS stimulation (6 h). One μg of total RNA was used for cDNA synthesis using the First-strand synthesis RT system (Invitrogen). Two μl of cDNA was used for PCR using iNOS or inflammatory gene specific primers amplifying a 0.7 kb region of cDNA. GAPDH cDNA samples were carried out for 22 to 25 cycles. […]
Total RNA was analyzed for iNOS and GAPDH mRNA by Northern Blotting. […] Cells were stimulated with LPS for 6 h and total RNA was analyzed as in FIG. 1a. […] A 150 base pair region of the iNOS promoter spanning the most proximal NF-κB site to the start of transcription was analyzed by ChIP assays using the indicated antibodies. […]
In FIG. 2a, CHIP analysis of NCoR and Ubc5 occupancy on the iNOS promoter was performed in primary macrophages stimulated with LPS for the indicated times in the presence or absence of Ro. In FIG. 2b, Semi-quantitative RT-PCR analysis of iNOS and GAPDH mRNA in primary macrophages. […]

[5] = test system: iNOS promoter; experiment: iNOS-luciferase reporter in RAW264.7 cells transfected with LXRα; format: cell-based, mouse; settings: RAW264.7, LXRα
Experimental: The RAW264.7 mouse macrophage cell line was transiently transfected with iNOS or ABCA1 promoters directing luciferase expression, pCMXhLYRα, FLAGhLXRβ, and their mutants. For transrepression experiments, wildtype LXRα and LXRβ or LXR mutants were transfected at a 3:1 (LXR to reporter plasmid) ratio using Superfect reagent (Qiagen). For siRNA experiments, RAW264.7 cells were transfected with siRNAs (40 nM) using Superfect reagent for 48 h before activation with LXR ligands and LPS induction. […]
Macrophages were transfected with siRNA for 48 h and then stimulated with LPS ([…]) for 6 h in the absence or presence of LXR ligand (GW3965, 1 μM). iNOS expression in peritoneal macrophages was evaluated by real-time quantitative PCR and iNOS promoter activation in RAW264.7 was evaluated by luciferase assay. […]

[6] = test system: iNOS promoter; experiment: ChIP for LXR and NCoR on the iNOS promoter in primary macrophages, LXR ligand; format: cell-based, mouse
Experimental: For each experimental condition, 20×10^6 primary macrophages were used. Cells were pre-treated with 1 μM GW3965 (1 h) and stimulated with 1 μg/ml LPS (1 h) before crosslinking for 10 min with 1% formaldehyde. Crosslinked adducts were resuspended and sonicated resulting in DNA fragments of 300-900 bp. Anti-LXR (Calbiochem) or anti-NCoR (Affinity Bioreagents) antibodies were used. Protein-bound, immunoprecipitated DNA was reverse cross-linked at 65° C. overnight and then purified using PCR purification Kit (Qiagen). A 150-bp region of the iNOS promoter was amplified by real time PCR spanning the most proximal NF-κB site to the start of transcription.
as §1

[7] = test system: iNOS promoter; experiment: Chromatin immunoprecipitation on the iNOS promoter in primary macrophages or RAW 264.7 cells; format: cell-based, mouse; settings: primary macrophages, ligand 1 h then LPS 1 h (FIG. 1e)
Experimental: 2-4×10^6 primary macrophages or RAW 264.7 cells were used per experimental point. Cells were pre-treated with 1 μM Ro (1 h) and stimulated with 1 μg/ml LPS (1 h). Cross-linking was carried out for 10 min with 1% formaldehyde and cells lysed with 1% SDS, 10 mM EDTA, 50 mM Tris-HCl pH 8.1 and sonicated 10 sec-5 times. Five μg antibody conjugated to sheep anti-rabbit dyna-beads (Dyna1) were used for immunoprecipitations. For PPARγ, 2 μg of H-100 plus 3 μg of PPARγ antibody from Geneka were used in combination. Alternatively, anti-HA protein A sepharose beads (Covance) were used for wild-type and mutant HA-tagged PPARγ proteins. HDAC3 and p65 antibodies were from SantaCruz. NCoR antibody was from Affinity Bioreagents, Inc. Beads were washed twice with wash buffer: 150 mM NaCl, 0.1% SDS, 1% Triton X-100, 2 mM EDTA, 20 mM Tris-HCl and subsequently with buffer: 0.25 M LiCl, 1% NP-40, 1% deoxycholate, 1 mM EDTA, 10 mM Tris-HCl. Beads were eluted in 300 μl of TE with 1% SDS and 0.1 M NaCO3. Elute samples and 10% inputs were reversed at 65° C. for a minimum of 6 h. […]
In FIG. 1e, primary macrophages were pretreated with Ro or GW0072 for 1 h followed by 1 h LPS induction and formaldehyde crosslinking. A 150 base pair region of the iNOS promoter spanning the most proximal NF-κB site to the start of transcription was analyzed by ChIP assays using the indicated antibodies.

[8] = target: T1, PPARγ (Homo sapiens, UniProt P37231); settings: cited from earlier work
T1 sequence (P37231 1-505): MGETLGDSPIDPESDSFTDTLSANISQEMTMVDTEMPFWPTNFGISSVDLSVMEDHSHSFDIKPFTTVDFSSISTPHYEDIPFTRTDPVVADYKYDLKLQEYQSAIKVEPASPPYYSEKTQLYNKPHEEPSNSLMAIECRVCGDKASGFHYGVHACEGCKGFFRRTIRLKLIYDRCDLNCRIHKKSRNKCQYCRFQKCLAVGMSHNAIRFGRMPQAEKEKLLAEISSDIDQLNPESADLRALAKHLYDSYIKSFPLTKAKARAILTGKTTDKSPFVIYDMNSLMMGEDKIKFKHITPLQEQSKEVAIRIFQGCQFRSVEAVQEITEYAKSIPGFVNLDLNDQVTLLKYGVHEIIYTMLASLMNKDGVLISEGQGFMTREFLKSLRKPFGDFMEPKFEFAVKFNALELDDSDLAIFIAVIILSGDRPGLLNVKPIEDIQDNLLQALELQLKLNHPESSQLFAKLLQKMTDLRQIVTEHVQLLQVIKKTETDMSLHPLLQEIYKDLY

[9] = test system: iNOS promoter; experiment: iNOS-luciferase reporter transrepression in RAW264.7 cells transfected with PPARγ; format: cell-based, mouse
Source text: For transrepression experiments, wild-type PPARγ or PPARγ mutants were transfected at a 3:1 ratio to reporter plasmids using Superfect reagent (Qiagen). […] Transfection experiments evaluated each experimental condition in triplicate and results were expressed as mean +/− standard deviation. Each transfection experiment was independently repeated at least three times. Statistical analysis was preformed using Student's t-test with P<0.01 considered statistically significant.
In FIG. 1b, RAW264.7 cells were transfected with the indicated siRNAs and PPARγ expression and iNOS-luciferase reporter plasmids. Cells were treated with LPS and/or Ro as in panel a prior to assay of luciferase activity. […] In FIG. 1d, RAW264.7 cells were transfected with the indicated siRNAs and PPARγ expression and iNOS-luciferase reporter plasmids. Cells were treated with LPS and/or Ro as in FIG. 1a, prior to assay of luciferase activity. […] In FIG. 1f, RAW264.7 cells were transfected with the indicated siRNAs and PPARγ expression and iNOS-luciferase reporter plasmids and stimulated with LPS for 6 h prior to assay of luciferase activity.
In FIG. 4a, RAW264.7 cells were transfected with the iNOS reporter, PPARγ expression plasmid and Ubc9-siRNA. 36 h post-transfection cells were pretreated with Ro for 1 h and LPS for 6 h prior to assay of luciferase activity. […]

[10] = target: T2, PPARγ (Mus musculus, UniProt P37238); experiment: Transactivation assay on positively regulated PPARγ-dependent promoter (Aox-TK luciferase) in RAW264.7 cells; format: cell-based
T2 construct: expressed in transfected cells; host or cells: RAW264.7 mouse macrophage cell line
T2 sequence (P37238 1-475 isoform P37238-2): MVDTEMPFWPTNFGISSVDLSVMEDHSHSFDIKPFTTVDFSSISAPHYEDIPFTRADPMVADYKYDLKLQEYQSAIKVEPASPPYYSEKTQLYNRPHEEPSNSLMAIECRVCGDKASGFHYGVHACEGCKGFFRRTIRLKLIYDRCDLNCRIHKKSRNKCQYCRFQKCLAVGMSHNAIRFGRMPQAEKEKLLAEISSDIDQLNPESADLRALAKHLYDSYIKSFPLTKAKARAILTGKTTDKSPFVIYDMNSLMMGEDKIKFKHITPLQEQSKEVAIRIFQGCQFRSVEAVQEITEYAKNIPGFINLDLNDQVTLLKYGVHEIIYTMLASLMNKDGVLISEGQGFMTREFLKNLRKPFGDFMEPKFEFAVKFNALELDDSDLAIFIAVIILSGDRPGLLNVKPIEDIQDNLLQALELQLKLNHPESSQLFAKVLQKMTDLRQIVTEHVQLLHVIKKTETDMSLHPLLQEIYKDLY
Experimental: The RAW264.7 mouse macrophage cell line was transiently transfected with plasmids containing the iNOS or Aox-TK promoters directing luciferase expression as previously described 22. For transrepression experiments, wild-type PPARγ or PPARγ mutants were transfected at a 3:1 ratio to reporter plasmids using Superfect reagent (Qiagen). For siRNA experiments, RAW264.7 cells were transfected with siRNAs (40 nM) using Superfect reagent for 48 h prior to activation with PPARγ ligands and LPS induction. […] Transfection experiments evaluated each experimental condition in triplicate and results were expressed as mean +/− standard deviation. Each transfection experiment was independently repeated at least three times. Statistical analysis was preformed using Student's t-test with P<0.01 considered statistically significant.
In FIG. 5b, in vivo detection of SUMOylation of PPARγ was performed in HeLa cells transfected with myc-tagged Sumo1 and HA-tagged WT-PPARγ or PPARγ^K365R. Cells were immunoprecipitated for HA tag and blotted for myc tag. NT refers to non-transfected cells. In FIG. 5c, RAW264.7 cells were transfected with wild-type (WT) and mutant HA-PPARγ and Flag(FL)-tagged PIAS1 expression plasmids and treated with Ro for 0, 10, 30 or 60 min. Whole cell extracts were immunoprecipitated for HA tag followed by western blotting for FL-PIAS1. […]

Structure (SMILES): C[C@H](CCCC(C)(C)O)[C@H]1CC[C@H]2[C@@H]3CC=C4C[C@@H](O)CC[C@]4(C)[C@H]3CC[C@]12C [25 hydroxycholesterol]
repression of iNOS activation [1]: do not repress iNOS activation
induction of ABCA1 expression [2]: activate ABCA1

Structure (SMILES): C[C@@H](CO)CCC[C@@H](C)[C@H]1CC[C@H]2[C@@H]3CC=C4C[C@@H](O)CC[C@]4(C)[C@H]3CC[C@]12C [27-hydroxycholesterol]
repression of iNOS activation [1]: do not repress iNOS activation
induction of ABCA1 expression [2]: activate ABCA1

Structure (SMILES): CC(C)C(O)CC[C@@H](C)[C@H]1CC[C@H]2[C@@H]3CC=C4C[C@@H](O)CC[C@]4(C)[C@H]3CC[C@]12C (some centres unmarked) [24-hydroxycholesterol]
repression of iNOS activation [1]: repress iNOS activation
induction of ABCA1 expression [2]: induce ABCA1 expression

Structure (SMILES): COC(=O)c1ccccc1N[C@@H](Cc1ccc(OCCc2nc(-c3ccccc3)oc2C)cc1)C(=O)O [GW7845]
effect on LPS induction of Ccl3, Ccl7, Cxcl10 and Tgtp [3]: repression of the LPS response

Structure (SMILES): CC(/C=C/C(=O)NO)=C\[C@@H](C)C(=O)c1ccc(N(C)C)cc1 [Trichostatin A]
effect on rosiglitazone-dependent transrepression of iNOS [4]: reversed rosiglitazone-dependent transrepression of iNOS

Structure (SMILES): C[C@H](CC[C@@H]1OC1(C)C)[C@H]1CC[C@H]2[C@@H]3CC=C4C[C@@H](O)CC[C@]4(C)[C@H]3CC[C@]12C [24(S), 25-epoxycholesterol]
repression of iNOS activation [1]: repress iNOS activation
induction of ABCA1 expression [2]: induce ABCA1 expression

Structure (SMILES): O=C(O)Cc1cccc(OCCCN(Cc2cccc(C(F)(F)F)c2Cl)CC(c2ccccc2)c2ccccc2)c1 [GW3965]
effect of NCoR-specific siRNA on ligand-dependent repression of iNOS promoter activation ([5]; GW3965 1 μM (FIG. 10B)): abolishes
effect of Ubc9-specific siRNA on ligand-dependent repression of iNOS promoter activation ([5]; GW3965 1 µM (FIG. 11B)): significantly impairs
effect of NCoR-specific siRNA on ligand-dependent repression of LPS-induced iNOS expression ([1]; peritoneal macrophages, GW3965 1 μM, LPS 1 mg/ml 6 h (FIG. 10A)): abolishes
effect of Ubc9-specific siRNA on ligand-dependent repression of LPS-induced iNOS expression ([1]; peritoneal macrophages, GW3965 1 μM, LPS 1 mg/ml 6 h (FIG. 11A)): significantly impairs
LXR recruitment on the iNOS promoter ([6]; GW3965 1 μM, LPS 1 h (FIG. 10C)): ligand-dependent and NCoR-dependent LXR recruitment
LPS-stimulated release of NCoR from the iNOS promoter ([6]; peritoneal macrophages, GW3965 1 μM (FIG. 10D)): inhibits

Structure (SMILES): CC(C)CC[C@@H](O)[C@@H](C)[C@H]1CC[C@H]2[C@@H]3CC=C4C[C@@H](O)CC[C@]4(C)[C@H]3CC[C@]12C [22R-hydroxycholesterol]
repression of iNOS activation [1]: repress iNOS activation
induction of ABCA1 expression [2]: induce ABCA1 expression

Structure (SMILES): CCCCCCCC1SC(CC(=O)N(Cc2ccccc2)Cc2ccccc2)C(=O)N1CCCCc1ccc(C(=O)O)cc1 (centres unmarked) [GW0072]
NCoR and HDAC3 occupancy of iNOS promoter after LPS stimulation [7]: both NCoR and HDAC3 remained on the iNOS promoter
dissociation of NCoR from PPARγ [8]: effective at dissociating NCoR from PPARγ; also recorded: disrupts direct interactions between NCoR and PPARγ
stimulation of interactions with nuclear receptor coactivators [8]: only weakly stimulates

transactivation activity [10]: strong transactivation activity
Structure (SMILES): CN(CCOc1ccc(C[C@H](Nc2ccccc2C(=O)c2ccccc2)C(=O)O)cc1)c1ccccn1 [GW1929]
repression of LPS induced iNOS promoter activity [9]: very weak repressor
